Data set [1] concerns T22 cells. Nature of the data set: Lactate dehydrogenase (LDH) release assay in T22 cells. The class given is cell-based, murine. To be noted: for LDH Release (T22 Cells), 0% FCS (LDH50) / LDH Release (T22 Cells), 10% FCS (LDH50): 2 h treatment, normalised to 0.1% Triton X-100 lysis, 4 parameter fit to 10 point titration. As to the method:
(§1) T22 cells or HEK 293 cells were seeded into a 96-well plate at a cell density of 5000 cells per well. Cells were maintained in Dulbecco’s Minimal Eagle Medium (DMEM) with 10% fetal bovine serum (FBS) and 1% (v/v) penicillin/streptomycin. The cells were incubated for 24 hours followed by cell media removal and addition of 90 µl of DMEM either with or without 10% FCS. Cells were then treated with compounds/peptide for 2 hours in DMEM with or without 10% FBS. Final working concentration of DMSO was 1% v/v. Corresponding negative control wells with 1% DMSO only were also prepared. Cytosolic lactate dehydrogenase release was detected using the cytoTox 96® non-radioactive cytotoxicity Assay kit (Promega) as per manufacturer’s instructions. Measurements were carried out using an Envision multiplate reader (Perkin-Elmer). Maximum LDH release was defined as the amount of LDH released when cells were lysed in the presence of 0.1% TRITON X-100 and was used to normalize the results.

Data set [2] has as its system HEK293 cells. Nature of the data set: Lactate dehydrogenase (LDH) release assay in HEK293 cells. In kind it is cell-based. To be noted: 0% FCS, 2 hour treatment, 12.5, 25 and 50 µM, normalised to 0.1% Triton X100 (Figure S1). As to the method:
as §1, with “results. […]” for “results.”
to induce LDH release in HEK293 cells after a 2 hour treatment period in A) the absence of FCS and B) the presence of 10% FCS. Compounds were tested at concentrations of 12.5 µM, 25 µM and 50 µM. Results were normalized to maximal LDH release as measured by treatment with 0.1% Triton X100.
(1 picture or pasted object on this page, not shown here)

The target in data set [3] is T1, Mdm2 (1-125) (Homo sapiens, UniProt Q00987).
T1 construct: Purified MDM2 (1-125) protein was titrated against 50 nM carboxyfluorescein (FAM)-labeled; GST (N, cleaved yes); made in house; host or cells: E. coli BL21 DE3 (pGEX-6P-1)
Put plainly: Mdm2 competitive fluorescence anisotropy assay (FAM-labeled 12/1 peptide displacement). On Kd (apparent dissociation constant, competitive fluorescence anisotropy): 250 nM MDM2. In kind it is binding. To be noted: for Kd: read-out: Kd (apparent dissociation constant, competitive fluorescence anisotropy). Here is the method:
analyzed with SDS page gel and concentrated using a Centricon (3.5 kDa MWCO) concentrator, Millipore. Mdm2 protein samples were then dialyzed into a buffer solution containing 20mM Bis-Tris, pH 6.5, 0.05M NaCl with 1mM DTT and loaded onto a monoS column pre-equilibrated in buffer A (20mM Bis-Tris, pH 6.5, 1mM DTT). The column was then washed in 6 column volumes of buffer A and bound protein was eluted with a linear gradient of 1M NaCL over 25 column volumes. Protein fractions were analyzed with SDS page gel and concentrated using a Centricon (3.5 kDa MWCO) concentrator, Millipore.
Protein concentration was determined using A280 using an extinction coefficients […]
Mdm2 Competitive Fluorescence Anisotropy Assay and Kd Determination […]
Dissociation constants for titration of MDM2 against […]
equation shown below:25,26
[P] is the protein concentration (MDM2), [L] is the labeled peptide concentration, r is the anisotropy measured, r0 is the anisotropy of the free peptide, rb is the anisotropy of the MDM2– FAM-labeled peptide complex, Kd is the dissociation constant, [L]t is the total FAM labeled
(1 picture or pasted object on this page, not shown here) […]
peptide concentration, and [P]t is the total MDM2 concentration. […]
respective competing ligands in subsequent competition assays.
Apparent Kd values were determined for a variety of molecules via competitive fluorescence anisotropy experiments. Titrations were carried out with the concentration of MDM2 held constant […]
The competing molecules were then titrated against the complex of the FAM-labeled peptide and protein. Apparent Kd values were determined by fitting the experimental data to the equations shown below:26,27 […]
[L]st and [L]t denote labeled ligand and total unlabeled ligand input concentrations, respectively.
Kd2 is the dissociation constant of the interaction between the unlabeled ligand and the protein. In […]
all competitive types of experiments, it is assumed that [P]t > [L]st, otherwise considerable amounts of free labeled ligand would always be present and would interfere with measurements. Kd1 is the […]
experimentally determined as described in the previous paragraph. The FAM-labeled peptide was dissolved in dimethyl sulfoxide (DMSO) at 1 mM and diluted into experimental buffer. Readings were carried out with an Envision Multilabel Reader (PerkinElmer). Experiments were carried out […]
Tween 20 buffer. All titrations were carried out in triplicate. Curve-fitting was carried out using […]
Negative control titrations of the ligands under investigation were also carried out with the fluorescently labeled peptide (in the absence of MDM2) to ensure no interactions were occurring between the ligands and FAM-labeled peptide. […]
which would otherwise indicate an unintended interaction between the ligand and the FAM-labeled peptide to be displaced from the MDM2 binding site. […]

In data set [4] the test system is T22 p53 reporter cells. Nature of the data set: p53 gene reporter assay (β-galactosidase) in T22 cells. In kind it is cell-based, murine. To be noted: for P53 Activation (T22 Cells), 0% FCS (p53ACT50 / EC50) / P53 Activation (T22 Cells), 10% FCS (p53ACT50 / EC50): 18 h, 1% DMSO, normalised to 25 µM Nutlin, 4 parameter fit to 10 point titration. In general terms: Reporter assays use an easily measured gene product as a stand-in for the process of interest.
Description: T22 cells, which were stably transfected with a p53 responsive β-galactosidase reporter, were seeded into a 96-well plate at a cell density of 8000 cells per well. Cells were also maintained in Dulbecco’s Minimal Eagle Medium (DMEM) with 10% fetal calf serum (FCS) and 1% (v/v) penicillin/streptomycin. The cells were incubated for 24 hours and followed by cell media removal and replacement with 90 µl of fresh DMEM either containing 10% FCS or 0% FCS. 10 µl of each compound was then added directly to each well and incubated for 18 hours. Final working concentration of DMSO was 1% v/v. […] Measurements were carried out using an Envision multiplate reader (Perkin-Elmer). […] This was then used to normalize the experimental results.

Positions of bridges follow the written chain, without caps; N, C: chain ends. Non-standard residues stand in square brackets, D forms with d. Residues, ends and D or L forms follow the SMILES beside them. R8 = C=CCCCCCC[C@@](C)(N)C(=O)O; Cba = N[C@@H](CC1CCC1)C(=O)O; S5 = C=CCCC[C@](C)(N)C(=O)O; Ahx = NCCCCCC(=O)O

T1 sequence (Q00987 1-125): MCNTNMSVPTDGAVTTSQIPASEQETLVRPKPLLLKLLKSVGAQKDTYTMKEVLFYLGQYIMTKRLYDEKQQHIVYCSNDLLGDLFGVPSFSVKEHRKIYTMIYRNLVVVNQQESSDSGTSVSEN

For the compound `CC(=O)N[C@H](C(=O)N[C@@H](CO)C(=O)N[C@@H](CC(C)C)C(=O)N[C@]1(C)CCCCCCC=CCCC[C@@](C)(C(N)=O)NC(=O)[C@H](Cc2c[nH]c3ccccc23)NC(=O)[C@H](CC(C)C)NC(=O)[C@H](C)NC(=O)[C@H](Cc2ccccc2)NC(=O)[C@H](Cc2ccc(O)cc2)NC(=O)[C@H](CCC(=O)O)NC1=O)[C@@H](C)O` [sMTIDE-02^SCRAM] (Ac-TSL[R8]EYFALW[S5]-NH2; staple 4-11), in data set [1], the “LDH Release (T22 Cells), 0% FCS (LDH50)” value is 25.1 ± 2.8 µM and the “LDH Release (T22 Cells), 10% FCS (LDH50)” value worked out at 105 ± 8.0 µM. Further, the “LDH release in HEK293 cells, absence of serum (in words)” value in data set [2] is given as “induced significant amounts of LDH release”. Also, the “binding against Mdm2 in the FA competition assay (in words)” value in data set [3] is listed as “no binding”. In data set [4], the “P53 Activation (T22 Cells), 0% FCS (p53ACT50 / EC50)” value is reported as “No Activity” and the “P53 Activation (T22 Cells), 10% FCS (p53ACT50 / EC50)” value is reported as “No Activity”.
As for `CC(=O)N[C@@H](CCCCN)C(=O)N[C@@H](CCCCN)C(=O)NCCCCCC(=O)N[C@H](C(=O)N[C@@H](CO)C(=O)N[C@@H](CC(C)C)C(=O)N[C@]1(C)CCCCCCC=CCCC[C@@](C)(C(=O)N[C@@H](CCC(=O)O)C(=O)N[C@@H](CC(N)=O)C(=O)N[C@@H](Cc2ccccc2)C(N)=O)NC(=O)[C@H](Cc2c[nH]c3ccccc23)NC(=O)[C@H](CC(C)C)NC(=O)[C@H](C)NC(=O)[C@H](Cc2ccccc2)NC(=O)[C@H](Cc2ccc(O)cc2)NC(=O)[C@H](CCC(=O)O)NC1=O)[C@@H](C)O` [VIP-82^SCRAM] (Ac-KK[Ahx]TSL[R8]EYFALW[S5]ENF-NH2; staple 7-14), in data set [1], the “LDH Release (T22 Cells), 0% FCS (LDH50)” value is on record as “No Release” and the “LDH Release (T22 Cells), 10% FCS (LDH50)” value was “No Release”. Further, in data set [1] (formulated with SaintPhD (Figure S2)), the “LDH release, peptide formulated with SaintPhD (in words)” value is “did not induce any p53 activity or LDH release”. Besides, the “binding against Mdm2 in the FA competition assay (in words)” value in data set [3] is reported as “no binding”. Besides, in data set [4], the “P53 Activation (T22 Cells), 0% FCS (p53ACT50 / EC50)” value is listed as “No Activity” and the “P53 Activation (T22 Cells), 10% FCS (p53ACT50 / EC50)” value was “No Activity”. Further, the “p53 activity, peptide formulated with SaintPhD (in words)” value in data set [4] (formulated with SaintPhD, conditions identical to VIP-82:SaintPhD (Figure S2)) is “did not induce any p53 activity or LDH release”.
For `CC(=O)N[C@H](CCCCN)C(=O)N[C@H](CCCCN)C(=O)N[C@H](CCCCN)C(=O)NCCCCCC(=O)N[C@H](C(=O)N[C@@H](CO)C(=O)N[C@@H](Cc1ccccc1)C(=O)N[C@]1(C)CCCCCCC=CCCC[C@@](C)(C(=O)N[C@@H](CCC(=O)O)C(=O)N[C@@H](CC(N)=O)C(=O)N[C@@H](Cc2ccccc2)C(N)=O)NC(=O)[C@H](CC(C)C)NC(=O)[C@H](CC(C)C)NC(=O)[C@H](C)NC(=O)[C@H](Cc2c[nH]c3ccccc23)NC(=O)[C@H](Cc2ccc(O)cc2)NC(=O)[C@H](CCC(=O)O)NC1=O)[C@@H](C)O` [VIP-134] (Ac-[dK][dK][dK][Ahx]TSF[R8]EYWALL[S5]ENF-NH2; staple 8-15), the Kd in data set [3] amounted to 6.2 ± 0.9 nM.
For `CC(=O)N[C@@H](CCCNC(=N)N)C(=O)N[C@@H](CCCNC(=N)N)C(=O)N[C@@H](CCCNC(=N)N)C(=O)NCCCCCC(=O)N[C@H](C(=O)N[C@@H](CO)C(=O)N[C@@H](Cc1ccccc1)C(=O)N[C@]1(C)CCCCCCC=CCCC[C@@](C)(C(N)=O)NC(=O)[C@H](CC(C)C)NC(=O)[C@H](CC(C)C)NC(=O)[C@H](C)NC(=O)[C@H](Cc2c[nH]c3ccccc23)NC(=O)[C@H](Cc2ccc(O)cc2)NC(=O)[C@H](CCC(=O)O)NC1=O)[C@@H](C)O` [VIP-78], in data set [3], the Kd was found to be 78.8 ± 8.2 nM.
With `CC(=O)N[C@H](C(=O)N[C@@H](CO)C(=O)N[C@@H](Cc1ccccc1)C(=O)N[C@]1(C)CCCCCCC=CCCC[C@@](C)(C(=O)N[C@@H](CCC(=O)O)C(=O)N[C@@H](CC(N)=O)C(=O)N[C@@H](Cc2ccccc2)C(N)=O)NC(=O)[C@H](CC(C)C)NC(=O)[C@H](CC(C)C)NC(=O)[C@H](C)NC(=O)[C@H](Cc2c[nH]c3ccccc23)NC(=O)[C@H](Cc2ccc(O)cc2)NC(=O)[C@H](CCC(=O)O)NC1=O)[C@@H](C)O` [VIP-65], the Kd in data set [3] was determined as 19.7 ± 1.3 nM.
`CC(=O)N[C@@H](CCCCN)C(=O)N[C@@H](CCCCN)C(=O)NCCCCCC(=O)N[C@H](C(=O)N[C@@H](CO)C(=O)N[C@@H](Cc1ccccc1)C(=O)N[C@]1(C)CCCCCCC=CCCC[C@@](C)(C(=O)N[C@@H](CCC(=O)O)C(=O)N[C@@H](CC(N)=O)C(=O)N[C@@H](Cc2ccccc2)C(N)=O)NC(=O)[C@H](CC2CCC2)NC(=O)[C@H](CC(C)C)NC(=O)[C@H](C)NC(=O)[C@H](Cc2c[nH]c3ccccc23)NC(=O)[C@H](Cc2ccc(O)cc2)NC(=O)[C@H](CCC(=O)O)NC1=O)[C@@H](C)O` [VIP-124] (Ac-KK[Ahx]TSF[R8]EYWAL[Cba][S5]ENF-NH2; staple 7-14): the Kd in data set [3] was found to be 2.7 ± 0.4 nM.
For `CC(=O)N[C@H](C(=O)N[C@@H](CO)C(=O)N[C@@H](Cc1ccccc1)C(=O)NC(C)(C)C(=O)N[C@@H](CCC(=O)O)C(=O)N[C@@H](Cc1ccc(O)cc1)C(=O)N[C@@H](Cc1c[nH]c2ccccc12)C(=O)N[C@@H](C)C(=O)N[C@@H](CC(C)C)C(=O)N[C@@H](CC(C)C)C(=O)NC(C)(C)C(=O)N[C@@H](CCC(=O)O)C(N)=O)[C@@H](C)O` [VIP-76], the Kd in data set [3] stood at 35.9 ± 2.3 nM.
On the same count and under the same terms, the result for `CC(=O)N[C@H](C(=O)N[C@@H](CO)C(=O)N[C@@H](Cc1ccccc1)C(=O)N[C@]1(C)CCCCCCC=CCCC[C@@](C)(C(=O)N[C@@H](CCC(=O)O)C(N)=O)NC(=O)[C@H](CC2CCC2)NC(=O)[C@H](CC(C)C)NC(=O)[C@H](C)NC(=O)[C@H](Cc2c[nH]c3ccccc23)NC(=O)[C@H](Cc2ccc(O)cc2)NC(=O)[C@H](CCC(=O)O)NC1=O)[C@@H](C)O` [VIP-71] (Ac-TSF[R8]EYWAL[Cba][S5]E-NH2; staple 4-11) reads 14 ± 1.1 nM; that for `CC(C)C[C@@H]1NC(=O)[C@H](C)NC(=O)[C@H](Cc2c[nH]c3ccccc23)NC(=O)[C@H](Cc2ccc(O)cc2)NC(=O)[C@H](CCC(=O)O)NC(=O)[C@](C)(NC(=O)[C@H](Cc2ccccc2)NC(=O)[C@H](CO)NC(=O)[C@@H](NC(=O)CCCCCNC(=O)CCCC[C@@H]2SC[C@@H]3NC(=O)N[C@@H]32)[C@@H](C)O)CCCCCCC=CCCC[C@@](C)(C(=O)N[C@@H](CCC(=O)O)C(=O)N[C@@H](CC(N)=O)C(=O)N[C@@H](Cc2ccccc2)C(N)=O)NC(=O)[C@H](CC(C)C)NC1=O` [VIP-83], 24.6 ± 2.2 nM.
